From patent US20040110206A1, “Waveform modulated light emitting diode (LED) light source for use in a method of and apparatus for screening to identify drug candidates” (Bio TechPlex Corporation, priority 2002, published 2004)

Test system: normal human bronchial epithelial cells (NHBE)
Test: Cumulative dose kinetic responses of intracellular Ca++, Cl- and cell membrane potential (simultaneous Fluo-3, di-MEQ and RH421 fluorescence photon counting)
Format: cell-based
Experimental: Normal human bronchial/tracheal epithelial cells (NHBE, Clonetics) were cultured in T-25 cm^2 flasks at 37° C., 5% CO2 using Bronchial/Tracheal Epithelial Cell Growth Medium containing Retinoic Acid (BEGM, w/RA, Clonetics). When the NHBE cells in the T-25 flasks reached 60%-80% confluency, the cells were passaged using a seeding density of 3500 cells/cm^2. A portion of the cells was passaged in T-25 flasks again while the remaining cells were seeded on UV-exposed Vitrogen (pH balanced 1:1 BEGM to Vitrogen) coated 4-well cover glass chambers (LabTek II). NHBE cells normally attached to the collagen-coated cover glass chamber within 24 hrs. Prior to these cells reaching 60% confluency, they were used for all the experiments described below. Cells used in all the experiments were either 2nd or 3rd passage cells maintained in Bronchial/Tracheal Epithelial Cell Growth Medium with Retinoic Acid (BEGM, w/RA, Clonetics).
The following procedures for loading the cells with fluorophore were employed. Balanced Hank's (BH) solution without phenol red was used as the medium for all the fluorophore preparations and cell washings unless stated otherwise. Fluo-3 (a Ca^++ indicator), di-MEQ (a Cl^− indicator) and RH421 (a cell membrane potential indicator) were loaded into cells sequentially at room temperature. Cells were first incubated with 8 μM Fluo-3 solution for 60 minutes, followed by incubating with 50 μM di-MEQ for 5 minutes and then finally with 10 μM RH421 for 5 minutes. Extraneous dyes were washed with BH solution between each fluorophore loading procedure. The cells were allowed to stabilize in BEGM for a minimum of 15 minutes at room temperature prior to the beginning of each experiment.
Experiments were performed at room temperature. All tested agents were prepared in Balanced Hank's Solution. One of the wells of the cover glass chamber was placed on the stage of the inverted microscope and the cells loaded with the fluorophores were visually focused with the violet, green and orange emitted light from the cells approximately in the same focal plane. At a sampling frequency of 100 Hz, cells with the following photon counts were chosen for the study: 20 to 50 counts per channel (cpc) for Ca^++ fluorescence, 70 to 200 cpc for Cl^− fluorescence, and 20 to 50 cpc for cell membrane potential fluorescence. After establishing a 2 minute baseline, increasing doses of the agent of interest were added topically to the wells 2 minutes apart. At the end of each experiment, a toxic dose of the agent of interest was added to the sample to either shrink or swell the cells beyond their normal cell volume regulatory range. This caused the fluorescence signals of each of these fluorophores to reach either maximum or minimum values. […] Background fluorescence was recorded using a cell free area of the same well. If the signal to background ratio was not higher than a factor of 10, the experiments were also discarded.
The kinetic responses were measured as photon counts acquired in 10 ms intervals over>800 seconds. […] The correlation of these events and their kinetics, observations that can only be made with the present invention, provides unique insights into the mechanism by which Glibenclamide affects the cells.
UTP is a ligand to the p2Y receptor. The kinetic responses were measured as photon counts acquired in 10 ms intervals over >800 seconds.
Hyperpolarization of the cell membrane can also be induced via different cellular mechanisms such as by decreasing intracellular potassium. […] The kinetic responses were measured as photon counts acquired in 10 ms intervals over >900 seconds. It should be noted that the relative potencies of these agents in terms of the mechanisms for eliciting the temporal responses, the duration of the agent actions and the magnitude of hyperpolarization of the cell membrane can be compared and monitored for the first time. […]

COc1ccc(Cl)cc1C(=O)NCCc1ccc(S(=O)(=O)NC(=O)NC2CCCCC2)cc1 [Glibenclamide]
intracellular Ca++ response (500 μM): rapid increase
intracellular Cl- response (500 μM): simultaneous drop
membrane potential response (500 μM): simultaneous increase
cell membrane potential response (Glibenclamide 25 μM to 500 μM cumulative): hyperpolarized the cell membrane
[Cl-]i response (Glibenclamide 25 μM to 500 μM cumulative, MEQ fluorescence inversely proportional to [Cl-]i): increased
intracellular Ca++ response (concentrations below 500 μM): little affected
intracellular Cl- response (concentrations below 500 μM): declines as Glibenclamide concentration increases
membrane potential response (concentrations below 500 μM): little affected

O=c1ccn([C@@H]2O[C@H](COP(=O)(O)OP(=O)(O)OP(=O)(O)O)[C@@H](O)[C@H]2O)c(=O)[nH]1 [UTP, uridine triphosphate]
intracellular Cl- response (0.1 mM and 1 mM): essentially no changes
membrane potential response (0.1 mM and 1 mM): essentially no changes
intracellular Ca++ response (0.1 mM and 1 mM, increase followed by a measurable rate of decline): rapid increase
